Source: publication PMC6797808, “Fucosylated inhibitors of recently identified bangle lectin from Photorhabdus asymbiotica” (Scientific Reports, 2019)
≈ marks a conversion by molar mass, not a printed value.

Biological target: PHL (Photorhabdus asymbiotica, UniProt C7BLE4)
Assay: Hemagglutination inhibition assay with PHL (papain-treated human RBCs O)
Type: cell-based
Conditions: for MIC (minimal inhibitory concentration, hemagglutination by PHL): RBC O, two independent measurements; for PotencyL-Fuc: MIC L-fucose / MIC ligand; for β L-Fuc (affinity improvement factor): MICbasic unit/(valency × MICligand), basic unit L-Fuc; for β Azide1 (affinity improvement factor): basic unit azide 1
Description: The set of potential ligands 1–10 with different levels of fucosylation was tested, and their inhibition potency on hemagglutination by PHL was assessed (Table 1, Fig. 2). […] To assess the contribution of valency to the affinity increase, an affinity improvement factor β was calculated as the relationship MICbasic unit/(valency × MICligand).
Human red blood cells (RBCs) O were processed according to previously published work[16]. In brief, RBCs O treated with sodium citrate were washed four times by PBS buffer (137 mM NaCl, 2.7 mM KCl, 8 mM Na2HPO4, 1.47 mM KH2PO4, pH 7.4), diluted to 50% by PBS with 0.005% (w/w) sodium azide and treated by 0.1% papain for the duration of 30 minutes.
Hemagglutination inhibition assay was performed for specificity and semi-quantitative affinity of the PHL interaction with the compounds. All carbohydrate inhibitors in 50 mM starting concentration were serially diluted in the PBS buffer and used for a determination of the lowest inhibiting concentration. As a blank, the PBS buffer supplemented with the appropriate amount of DMSO was used in order to exclude potential interference with the interaction. The individual samples were mixed with the lectin in concentration 2 mg/ml in a 5 μl:5 μl ratio. Thereafter, 10 μl of 10% RBCs O in PBS buffer was added, thoroughly mixed and incubated for 10 minutes at room temperature. Following incubation, the mixture was again mixed and the reaction was observed on microscope slides using Levenhuk 2L NG microscope with Levenhuk D2L digital camera (Levenhuk, USA). Imagines were obtained via software ToupView for Windows (Levenhuk). The positive (PHL without inhibitor) and negative control (reaction without PHL) were prepared and processed in the same way using the appropriate volume of PBS buffer instead of the not included components. The lowest concentration of inhibitor able to inhibit agglutination was determined and compared with the standard (L-fucose). Minimal inhibitory concentrations (MIC) of synthesised inhibitors were determined from two independent measurements.

Chain of PHL (C7BLE4 entry or part of it): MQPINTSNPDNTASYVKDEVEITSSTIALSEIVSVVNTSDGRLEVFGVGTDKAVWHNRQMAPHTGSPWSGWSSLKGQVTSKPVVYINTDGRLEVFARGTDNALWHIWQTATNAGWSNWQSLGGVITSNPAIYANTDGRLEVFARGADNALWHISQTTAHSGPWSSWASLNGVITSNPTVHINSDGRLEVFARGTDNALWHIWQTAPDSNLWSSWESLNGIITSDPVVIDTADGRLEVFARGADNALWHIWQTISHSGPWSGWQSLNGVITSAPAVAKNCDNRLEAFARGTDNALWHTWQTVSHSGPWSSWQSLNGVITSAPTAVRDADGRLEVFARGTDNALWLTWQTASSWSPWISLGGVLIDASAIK

In the case of `C[C@@H]1O[C@@H](CCN=[N+]=[N-])[C@@H](O)[C@H](O)[C@@H]1O` [Azide 1], the “MIC (minimal inhibitory concentration, hemagglutination by PHL)” value is reported as 200 µM (≈ 43.4 µg/mL), the PotencyL-Fuc (hemagglutination) is reported as 15.6 and the PotencyL-Fuc (hemagglutination, listed as azide 1) is reported as 16. The “β L-Fuc (affinity improvement factor)” value (hemagglutination) was 15.6 and the “β Azide1 (affinity improvement factor)” value (hemagglutination) was 1.
In the case of `C[C@@H]1O[C@@H](CCn2cc(COCC(COCc3cn(CC[C@@H]4O[C@@H](C)[C@@H](O)[C@@H](O)[C@@H]4O)nn3)(COCc3cn(CC[C@@H]4O[C@@H](C)[C@@H](O)[C@@H](O)[C@@H]4O)nn3)COCc3cn(CC[C@@H]4O[C@@H](C)[C@@H](O)[C@@H](O)[C@@H]4O)nn3)nn2)[C@@H](O)[C@H](O)[C@@H]1O` [Dendrimer 8], the “MIC (minimal inhibitory concentration, hemagglutination by PHL)” value is reported as 50 µM (≈ 57.9 µg/mL), the PotencyL-Fuc (hemagglutination) is reported as 62.5 and the “β L-Fuc (affinity improvement factor)” value (hemagglutination) is reported as 15.6. The “β Azide1 (affinity improvement factor)” value (hemagglutination) was 1 and the PotencyAzide1 (hemagglutination, relative to azide 1) was 4.
